Data on 20 molecules can be found in patent US20240287076A1, “COMPOUNDS FOR TARGETING DEGRADATION OF BRUTON'S TYROSINE KINASE” (BIOGEN MA INC., priority 2021, published 2024).

T1 sequence (Q06187 whole entry, the tested form may be a part): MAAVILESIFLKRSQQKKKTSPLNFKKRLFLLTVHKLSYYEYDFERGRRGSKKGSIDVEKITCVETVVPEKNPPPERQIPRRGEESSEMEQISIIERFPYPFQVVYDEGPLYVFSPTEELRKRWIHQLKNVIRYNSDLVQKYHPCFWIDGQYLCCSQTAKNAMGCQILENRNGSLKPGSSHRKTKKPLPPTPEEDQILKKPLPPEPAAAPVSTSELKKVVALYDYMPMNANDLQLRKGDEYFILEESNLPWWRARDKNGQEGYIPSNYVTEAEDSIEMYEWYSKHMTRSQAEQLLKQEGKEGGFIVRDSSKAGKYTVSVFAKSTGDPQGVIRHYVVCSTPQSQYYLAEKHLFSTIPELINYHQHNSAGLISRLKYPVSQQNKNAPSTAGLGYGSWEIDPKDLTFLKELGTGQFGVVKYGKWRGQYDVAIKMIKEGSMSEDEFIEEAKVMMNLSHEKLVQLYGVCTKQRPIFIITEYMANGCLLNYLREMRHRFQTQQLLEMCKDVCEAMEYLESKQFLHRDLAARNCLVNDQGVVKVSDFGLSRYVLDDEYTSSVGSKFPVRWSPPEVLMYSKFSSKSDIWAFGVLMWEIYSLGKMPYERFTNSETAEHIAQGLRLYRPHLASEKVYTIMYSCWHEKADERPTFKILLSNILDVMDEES

This experiment has as its target T1, BTK (Homo sapiens, UniProt Q06187).
T1 construct: The GM01501.3 cell line endogenously expresses BTK with a HiBiT fusion tag via CRISPR knock-in at its C-terminal region; endogenous in cells; host or cells: GM01501.3 (GM01501 cells engineered by CRISPR knock-in of HiBiT at the BTK locus)
Nature of the experiment: BTK degradation assay using the HiBiT Method (Nano-Glo HiBiT Lytic Assay, GM01501.3 cells). Format: cell-based. The conditions noted are these: HiBiT Degradation on GM01501.3 BTK @ 6 hours. The essentials:
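Degradation read-out: HiBiT luminescence after lytic reagent addition, giving DC50. Compounds dosed from 10 μM in 11 half-log steps (duplicate) onto GM01501.3 cells, whose endogenous BTK carries a C-terminal HiBiT knock-in tag; 6 h exposure, 37 °C, 5% CO2.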
For orientation: The HiBiT peptide binds its large partner to form an active luciferase.
In the case of `Cc1cc(-c2ncnn3cc(CCN4CCC(c5ccc6c(N7CCC(=O)NC7=O)nn(C)c6c5)CC4)cc23)ccc1CNC(=O)c1noc(C2(C)CCC2)n1` [Example 257, N-(4-(6-(2-(4-(3-(2,4-dioxotetrahydropyrimidin-1(2H)-yl)-1-methyl-1H-indazol-6-yl)piperidin-1-yl)ethyl)pyrrolo[2,1-f][1,2,4]triazin-4-yl)-2-methylbenzyl)-5-(1-methylcyclobutyl)-1,2,4-oxadiazole-3-carboxamide], the DC50 – broadly, the midpoint of the concentration-degradation curve – is under 100 nM.
On to `Cc1cc(-c2ncnn3cc(N4CCN(C(=O)C5CCN(C(=O)c6ccc(OC7CCC(=O)NC7=O)cc6)C56CCC6)CC4)cc23)ccc1CNC(=O)c1noc(C(C)(C)C)n1` (centres unmarked) [Example 191, 5-(tert-butyl)-N-(4-(6-(4-(5-(4-((2,6-dioxopiperidin-3-yl)oxy)benzoyl)-5-azaspiro[3.4]octane-8-carbonyl)piperazin-1-yl)pyrrolo[2,1-f][1,2,4]triazin-4-yl)-2-methylbenzyl)-1,2,4-oxadiazole-3-carboxamide], for which the 50% degradation concentration (DC50) is under 100 nM.
Turning to `Cc1cc(-c2ncnn3cc(N4CCN(C(=O)c5ccc(CNC(=O)c6ccc(OC7CCC(=O)NC7=O)cc6)nc5)CC4)cc23)ccc1CNC(=O)c1noc(C(C)(C)C)n1` (centres unmarked) [Example 179, 5-(tert-butyl)-N-(4-(6-(4-(6-((4-((2,6-dioxopiperidin-3-yl)oxy)benzamido)methyl)nicotinoyl)piperazin-1-yl)pyrrolo[2,1-f][1,2,4]triazin-4-y1)-2-methylbenzyl)-1,2,4-oxadiazole-3-carboxamide], the 50% degradation concentration (DC50) is 100 to 500 nM.
The molecule `Cc1cc(-c2ncnn3cc(-c4ccc(N5CCC(c6ccc(C7CCC(=O)NC7=O)cc6)CC5)cc4)cc23)ccc1CNC(=O)c1noc(C(C)(C)C)n1` (centres unmarked) [Example 146, 5-tert-butyl-N-[[4-[6-[4-[4-[4-(2,6-dioxo-3-piperidyl)phenyl]-1-piperidyl]phenyl]pyrrolo[2,1-f][1,2,4]triazin-4-yl]-2-methyl-phenyl]methyl]-1,2,4-oxadiazole-3-carboxamide] showed a DC50 of 100 to 500 nM.
In turn, `CO[C@H]1CN(CCc2cc3c(-c4ccc(CNC(=O)c5noc(C(C)(C)C)n5)c(C)c4)ncnn3c2)CC[C@H]1c1ccc2c(N3CCC(=O)NC3=O)nn(C)c2c1` (single isomer, unassigned) [Example 262] showed a DC50 of under 100 nM.
In the case of `Cc1cc(-c2ncnn3cc(OC4CC(CN5CCC(c6ccc7c(N8CCC(=O)NC8=O)nn(C)c7c6)CC5)C4)cc23)ccc1CNC(=O)c1noc(C(C)(C)C)n1` (centres unmarked) [Example 289, 5-(tert-butyl)-N-(4-(6-(3-((4-(3-(2,4-dioxotetrahydropyrimidin-1(2H)-yl)-1-methyl-1H-indazol-6-yl)piperidin-1-yl)methyl)cyclobutoxy)pyrrolo[2,1-f][1,2,4]triazin-4-yl)-2-methylbenzyl)-1,2,4-oxadiazole-3-carboxamide], the DC50 is under 100 nM.
`Cc1cc(-c2ncnn3cc(-c4ccc5sc(CN6CCC(c7ccc(C8CCC(=O)NC8=O)cc7)CC6)cc5n4)cc23)ccc1CNC(=O)c1noc(C(C)(C)C)n1` (centres unmarked) [Example 218, 5-(tert-butyl)-N-(4-(6-(2-((4-(4-(2,6-dioxopiperidin-3-yl)phenyl)piperidin-1-yl)methyl)thieno[3,2-b]pyridin-5-yl)pyrrolo[2,1-f] [1,2,4]triazin-4-yl)-2-methylbenzyl)-1,2,4-oxadiazole-3-carboxamide] returned a DC50 of 100 to 500 nM.
`CC(C)(C)c1nc(C(=O)NCc2ccc(-c3ncnn4cc(CCCCN5CCC(c6ccc(NC7CCC(=O)NC7=O)cn6)CC5)cc34)cc2F)no1` (centres unmarked) [Example 134, 5-tert-butyl-N-[[4-[6-[4-[4-[5-[(2,6-dioxo-3-piperidyl)amino]-2-pyridyl]-1-piperidyl]butyl]pyrrolo[2,1-f][1,2,4]triazin-4-yl]-2-fluoro-phenyl]methyl]-1,2,4-oxadiazole-3-carboxamide] registered a 50% degradation concentration (DC50) of under 100 nM.
Consider `COc1cc(-c2ncnn3cc(-c4ccc(CN5CCC(c6ccc(NC7CCC(=O)NC7=O)cc6)CC5)cc4)cc23)ccc1CNC(=O)c1noc(C(C)(C)C)n1` (centres unmarked) [Example 47, 5-tert-butyl-N-[[4-[6-[4-[[4-[4-[(2,6-dioxo-3-piperidyl)amino]phenyl]-1-piperidyl]methyl]phenyl]pyrrolo[2,1-f][1,2,4]triazin-4-yl]-2-methoxy-phenyl]methyl]-1,2,4-oxadiazole-3-carboxamide], for which the DC50 is under 100 nM.
The figure for `Cc1cc(-c2ncnn3cc(-c4ccc(CN5CCC(c6ccc(C7CCC(=O)NC7=O)cc6)CC5)cc4)cc23)ccc1CNC(=O)c1noc(C(C)(C)C)n1` (centres unmarked) [Example 4, 5-tert-butyl-N-[[4-[6-[4-[[4-[4-(2,6-dioxo-3-piperidyl)phenyl]-1-piperidyl]methyl]phenyl]pyrrolo[2,1-f][1,2,4]triazin-4-yl]-2-methyl-phenyl]methyl]-1,2,4-oxadiazole-3-carboxamide] is under 100 nM; for `Cc1cc(-c2ccnc3sc(CCCCN4CCC(c5ccc(NC6CCC(=O)NC6=O)cc5)CC4)cc23)ccc1CNC(=O)c1noc(C(C)(C)C)n1` (centres unmarked) [Example 158, 5-tert-butyl-N-[[4-[2-[4-[4-[4-[(2,6-dioxo-3-piperidyl)amino]phenyl]-1-piperidyl]butyl]thieno[2,3-b]pyridin-4-yl]-2-methyl-phenyl]methyl]-1,2,4-oxadiazole-3-carboxamide] it is 100 to 500 nM; for `Cc1cc(-c2ncnn3cc(CCC[C@H](F)CN4CCC(c5ccc(C6CCC(=O)NC6=O)cc5)CC4)cc23)ccc1CNC(=O)c1noc(C(C)(C)C)n1` (stereo partly drawn) [Example 171, 5-tert-butyl-N-[[4-[6-[(4S)-5-[4-[4-(2,6-dioxo-3-piperidyl)phenyl]-1-piperidyl]-4-fluoro-pentyl]pyrrolo[2,1-f][1,2,4]triazin-4-yl]-2-methyl-phenyl]methyl]-1,2,4-oxadiazole-3-carboxamide] it is under 100 nM.
The figure for `Cc1cc(-c2ncnn3cc(CCN4CCC(c5ccc(NC6CCC(=O)NC6=O)nc5)CC4)cc23)ccc1CNC(=O)c1noc(C(C)(C)C)n1` (centres unmarked) [Example 250, 5-(tert-butyl)-N-(4-(6-(2-(4-(6-((2,6-dioxopiperidin-3-yl)amino)pyridin-3-yl)piperidin-1-yl)ethyl)pyrrolo[2,1-f] [1,2,4]triazin-4-yl)-2-methylbenzyl)-1,2,4-oxadiazole-3-carboxamide] is under 100 nM; for `Cc1cc(-c2ncnn3cc(-c4cccc5c(CN6CCC(c7ccc(C8CCC(=O)NC8=O)cc7)CC6)n(C)nc45)cc23)ccc1CNC(=O)c1noc(C(C)(C)C)n1` (centres unmarked) [Example 212, 5-(tert-butyl)-N-(4-(6-(3-((4-(4-(2,6-dioxopiperidin-3-yl)phenyl)piperidin-1-yl)methyl)-2-methyl-2H-indazol-7-yl)pyrrolo[2,1-f][1,2,4]triazin-4-yl)-2-methylbenzyl)-1,2,4-oxadiazole-3-carboxamide] it is 100 to 500 nM.
The molecule `CC(C)(C)c1nc(C(=O)NCc2ccc(-c3ncnn4cc(CCCCN5CCC(c6ccc(C7(C)CCC(=O)NC7=O)cc6)CC5)cc34)cc2F)no1` (centres unmarked) [Example 140, 5-tert-butyl-N-[[2-fluoro-4-[6-[4-[4-[4-(3-methyl-2,6-dioxo-3-piperidyl)phenyl]-1-piperidyl]butyl]pyrrolo[2,1-f][1,2,4]triazin-4-yl]phenyl]methyl]-1,2,4-oxadiazole-3-carboxamide] displayed a DC50 of under 100 nM.
Consider `Cc1cc(-c2ncnn3cc(-c4ccc(CN5CCC(c6ccc(NC7CCC(=O)NC7=O)cc6)CC5)cc4)cc23)ccc1CNC(=O)c1nc(C(C)(C)C)no1` (centres unmarked) [Example 79, 3-tert-butyl-N-[[4-[6-[4-[[4-[4-[(2,6-dioxo-3-piperidyl)amino]phenyl]-1-piperidyl]methyl]phenyl]pyrrolo[2,1-f][1,2,4]triazin-4-yl]-2-methyl-phenyl]methyl]-1,2,4-oxadiazole-5-carboxamide], for which the DC50 was under 100 nM.
The molecule `Cc1cc(-c2ncnn3cc(-c4ccc(CN5CCC(c6ccc(NC7CCC(=O)NC7=O)cc6)CC5)cc4)cc23)ccc1CNC(=O)c1ccc(C(C)C)cn1` (centres unmarked) [Example 89, N-[[4-[6-[4-[[4-[4-[(2,6-dioxo-3-piperidyl)amino]phenyl]-1-piperidyl]methyl]phenyl]pyrrolo[2,1-f][1,2,4]triazin-4-yl]-2-methyl-phenyl]methyl]-5-isopropyl-pyridine-2-carboxamide] came in with a DC50 of under 100 nM.
The figure for `Cc1cc(-c2ncnn3cc(-c4nccc(CN5CCC(c6ccc(C7CCC(=O)NC7=O)cc6)CC5)c4F)cc23)ccc1CNC(=O)c1noc(C(C)(C)C)n1` (centres unmarked) [Example 217, 5-(tert-butyl)-N-(4-(6-(4-((4-(4-(2,6-dioxopiperidin-3-yl)phenyl)piperidin-1-yl)methyl)-3-fluoropyridin-2-yl)pyrrolo[2,1-f][1,2,4]triazin-4-yl)-2-methylbenzyl)-1,2,4-oxadiazole-3-carboxamide] is under 100 nM.
The molecule `Cn1nc(N2CCC(=O)NC2=O)c2ccc(C3CCN(Cc4ccc(-c5cc6nccc(-c7ccc(CNC(=O)N8CC(OC(C)(C)C)C8)c(F)c7)n6n5)cc4)CC3)cc21` [Example 165, 3-tert-butoxy-N-[[4-[2-[4-[[4-[3-(2,4-dioxohexahydropyrimidin-1-yl)-1-methyl-indazol-6-yl]-1-piperidyl]methyl]phenyl]pyrazolo[1,5-a]pyrimidin-7-yl]-2-fluoro-phenyl]methyl]azetidine-1-carboxamide] had a half-maximal degradation concentration (DC50) of under 100 nM.
In turn, `Cc1cc(-c2ncnn3cc(N4CCN(C(=O)C5CCOC5CNC(=O)c5ccc(OC6CCC(=O)NC6=O)cc5)CC4)cc23)ccc1CNC(=O)c1noc(C(C)(C)C)n1` (centres unmarked) [Example 187, 5-(tert-butyl)-N-(4-(6-(4-(2-((4-((2,6-dioxopiperidin-3-yl)oxy)benzamido)methyl)tetrahydrofuran-3-carbonyl)piperazin-1-yl)pyrrolo[2,1-f][1,2,4]triazin-4-yl)-2-methylbenzyl)-1,2,4-oxadiazole-3-carboxamide] showed a DC50 of under 100 nM.
